Experiments:
[1] = tested on: cad-11 protein in extravillous cytotrophoblasts; assay: Western blot of cad-11 protein in extravillous cytotrophoblasts cultured with TGF-1; format: cell-based, human
Procedure: (§1) First trimester placentae were obtained from elective terminations of pregnancies (8-13 weeks). Extravillous cytotrophoblasts were propagated from first trimester placental explants as described by Graham et al. Biology of Reproduction 46:561-572. The chorionic villi were washed thoroughly in Dulbecco's Modified Eagle's Medium (DMEM; Gibco BRL. Burlington. Ont.) containing 25 mM glucose, 25 mM Hepes and […] gentamicin. The villi were minced finely and plated in 25 cm^2 tissue culture flasks containing DMEM supplemented with antibiotics and 10% heat-inactivated fetal calf serum (FCS). The fragments of chorionic villi were allowed to adhere for […], after which the non-adherent material was removed. The villous explants were cultured for a further 10-14 days, with the culture medium being replaced every 3 days. The propagated extravillous cytotrophoblasts were separated from the villous explants by a trypsin digestion (0.125% trypsin in Ca^2−, Mg^2−-free PBS) and plated in 60 mm culture dishes containing DMEM supplemented with antibiotics and 10% FCS. The purity of the extravillous cytotrophoblast cultures was determined by cytokeratin immunostaining. Only cultures which were 100% positive for cytokeratin immunostaining were used.
(§2) Extravillous cytotrophoblasts grown to 70% confluence in DMEM containing 10% FCS, were washed with PBS and cultured in serum-free DMEM for a further 24 hours. This culture medium was removed and after the cells had been washed twice with PBS, replaced with serum-free DMEM containing porcine TGF-1 (1 pg-10 ng/ml); Sigma Chemical Co., St. Louis. MO) or vehicle ([…]). The cells were fixed for morphological assessment and immunocytochemistry or harvested for Northern or Western blot analysis after 24 hours of culture in the presence or absence of TGF-1.
For Western blot analysis, the trophoblasts were incubated in 100 l of cell lysis buffer (Tris-HCl, pH 7.5 containing 0.5% Nonidet P40, 0.5 mM CaCl2 and 1.0 mM PMSF) at 4° C. for 30 minutes on a rocking platform. The cell lysates were centrifuges at 10.000×g for 20 minutes and the supernatant used in the Wester blot analyses. Aliquots were then taken from the samples and subjected to SDS-polyacrylamide gel electrophoresis under reducing conditions, as described by Laemmli (1970) Nature 227:680-685. The stacking gels contained 5% acrylamide and the separating eels were composed of 7.5% acrylamide. […]
The results are presented as the mean relative absorbance (±SE) for three independent experiments. Statistical differences between treatments were assessed by the analysis of variance (ANOVA). […] Significant differences between the means were determined using the least significant test. […]

[2] = tested on: cad-11 mRNA in PC3 prostate cancer cell line; assay: Semiquantitative PCR of cad-11 mRNA in PC3 cells cultured with TGF-1; format: cell-based; conditions: TGF-1 10 pg-1 ng/ml for 24 hours
Text: (§3) However, low levels of the mRNA transcripts encoding E-cadherin and cad-11 were also detected in these cell lines.
(§4) The increase in cad-11 was concomitant with a decrease in cad-6 and N-cadherin mRNA levels.

[3] = tested on: N-cadherin mRNA in PC3 prostate cancer cell line; assay: PCR of N-cadherin mRNA in PC3 cells cultured with TGF-1; format: cell-based; conditions: TGF-1 10 pg-1 ng/ml for 24 hours
Text: as §3, §4

[4] = tested on: extravillous cytotrophoblasts; assay: Immunocytochemistry for cad-11 and morphology of extravillous cytotrophoblasts cultured with TGF-1; format: cell-based, human
Procedure: as §1, §2
The cells were washed twice in PBS and fixed in 0.1% glutaraldehyde/2% formaldehyde at 4° C. for 20 minutes Immunocytochemistry was performed using a mouse monoclonal antibody directed against human cytokeratin filaments 8 and 18 (Becton Dickson. San lose. CA) or a further monoclonal antibody directed against human cad-11 (C11-113E; ICOS Corporation. Bothell, Wash.; ATCC accession no. HB-12515) as described in (MacCalman et al. 1996 [supra] and Getsios et al. 1998 [supra]). Sequential incubations were performed according to the methods of Cartun and Pedersen (1989) J. of Histotechnology 12:273-280 and included 10% normal horse serum for 30 minutes, primary antiserum at 37° C. for 1 hours, secondary biotinylated antibody at 37° C. for 45 minutes, streptavidin-biotinylated horseradish peroxidase complex reagent at 37° C. for 30 minutes, and three five minutes washes in PBS. […]

[5] = tested on: cad-6 mRNA in PC3 prostate cancer cell line; assay: PCR of cad-6 mRNA in PC3 cells cultured with TGF-1; format: cell-based; conditions: TGF-1 10 pg-1 ng/ml for 24 hours
Text: as §3, §4

[6] = tested on: cad-11 mRNA in extravillous cytotrophoblasts; assay: Northern blot of cad-11 mRNA in extravillous cytotrophoblasts cultured with TGF-1; format: cell-based, human
Procedure: as §1
Extravillous cytotrophoblasts grown to 70% confluence in DMEM containing 10% FCS, were washed with PBS and cultured in serum-free DMEM for a further 24 hours. […]
The Northern blots were probed with a human cad-11 cDNA probe according to the methods of MacCalman et al. (1992) [supra]. […] The absorbance values obtained for the cad-11 mRNA transcript were normalized relative to the 18 rRNA absorbance value.
The results are presented as the mean relative absorbance (±SE) for three independent experiments. Statistical differences between treatments were assessed by the analysis of variance (ANOVA). […] Significant differences between the means were determined using the least significant test.

[7] = 1 or 10 ng/ml of TGF-1, 24 hours, only these concentrations
[8] = TGF-1 1 pg-10 ng/ml, 24 hours, dose-dependent manner

## TGF-1: porcine TGF-1 (transforming growth factor), Sigma Chemical Co.
[1]; [7]
  cad-11 protein expression levels at 1 or 10 ng/ml: significant increase
[1]; 24 hours
  TGF-1 concentration giving maximum cad-11 expression levels: 10 ng/mL
[1]; [8]
  cad-11 protein expression levels, dose dependence: increase
[1]; porcine TGF-1 10 pg-10 ng/ml
  cad-11 levels by Western blot, dose dependence: increased
[2]
  Cad-11 mRNA levels: readily detectable
[3]
  N-cadherin mRNA levels: decrease
[4]; 0.1 ng/ml of TGF-1 for 12 hours
  cellular structures observed: Large cellular aggregates
[4]; 10 ng/ml TGF-1, 24 hours
  large cellular aggregates and multinucleated cells: predominant
[4]; 1 or 10 ng/ml of TGF-1, 24 hours, immunostaining
  number of cells expressing cad-11: marked increase
[4]; high concentrations of TGF-1
  cad-11 immunostaining of cell aggregates: Intense immunostaining
[5]
  cad-6 mRNA levels: decrease
[6]; [7]
  cad-11 mRNA levels at 1 or 10 ng/ml: significant increase
[6]; 24 hours
  TGF-1 concentration giving maximum cad-11 mRNA levels: 10 ng/mL
[6]; [8]
  cad-11 mRNA levels, dose dependence: increased

From patent US20050180982A1, “Cadherin-11 expression, an assay and treatment for cellular invasiveness” (THE UNIVERSITY OF BRITISH COLUMBIA, priority 1998, published 2005)
